In this test the test system is CTLL-2 cells. Format: cell-based.

In the case of DRGWGNGCGDFGKG [FLV FUS non-IS], the “effect of the dimeric peptides on proliferation of CTLL-2 cells” value was “non-immune suppressive”.

DRGWGNGCGLFGKG [monomeric peptide]: the “inhibition of proliferation of CTLL-2 cells” value was “no effect”.

In the case of GLFGAIAGFIENGWEGCGGEKEKEK [wt INF], the “effect of the dimeric peptides on proliferation of CTLL-2 cells (synthesis of new DNA)” value is recorded as “inhibits synthesis of new DNA”.

Take PALSTGLIHLHQNIVDVQCGGEKEKEK: the “inhibition of proliferation of T-cells” value is recorded as “inhibits proliferation of T-cells in a concentration dependent manner”.
